Laboratory results from patent publication US20110045101A1, “FUNGICIDAL SUBSTITUTED AZOLES” (E.I. Du Pont De Nemours and Company, priority 2009, published 2011).
Marks after values point to notes of the source that are not given here.

Experiments:
Assay type in all cases: in vivo
Conditions in all cases: 100 = 100% disease control
Septoria tritici = assay: Test G: wheat leaf blotch on wheat seedlings, sprayed the day before inoculation, visual disease rating
Procedure, shortened: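 Compounds dissolved in acetone (3% of final volume), then suspended in 50/50 acetone/water with 250 ppm Trem® 014 and sprayed to run-off on seedlings at 200 ppm (≈500 g/ha) or 40 ppm where marked. Inoculation with spores followed next day; visual rating after 48 h saturated at 24° C plus 19 days at 20° C.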

Septoria nodorum = assay: Test F: wheat glume blotch on wheat seedlings, sprayed the day before inoculation, visual disease rating
Procedure, shortened: (§1)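 Test rate was 200 ppm, sprayed to run-off and equal to 500 g/ha, or 40 ppm where marked. The compound was first taken up in acetone at 3% of final volume and suspended in acetone/purified water (50/50) containing 250 ppm Trem® 014.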

Botrytis cinerea = assay: Test C: tomato Botrytis on tomato seedlings, sprayed the day before inoculation, visual disease rating
Procedure, shortened: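 Each compound is first taken up in acetone at 3% of the final volume and then brought to the desired ppm in a 50:50 acetone–water mix with 250 ppm surfactant (polyhydric alcohol esters). Tomato seedlings receive the suspension to run-off, normally at 200 ppm, occasionally 40 ppm.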

[1] = test system: Puccinia recondita f. sp. tritici; assay: Test I: wheat leaf rust on wheat seedlings, sprayed the day before inoculation, visual disease rating
Procedure, shortened: as §1

Alternaria solani = assay: Test D: tomato early blight, sprayed the day before inoculation, visual disease rating
Procedure, shortened: as §1

[2] = test system: Erysiphe graminis f. sp. tritici; assay: Test J: wheat powdery mildew on wheat seedlings, sprayed the day before inoculation, visual disease rating
Procedure, shortened: as §1

[3] = 200 ppm, 0 = no control relative to controls

SMILES	Test G disease control rating (Septoria tritici; [3]) [%]	Test F disease control rating (Septoria nodorum; [3]) [%]	Test C disease control rating (Botrytis cinerea; [3]) [%]	Test I disease control rating [1, 3] [%]	Test D disease control rating (Alternaria solani; [3]) [%]	Test J disease control rating [2, 3] [%]	Test G disease control rating (Septoria tritici; 200 ppm, 0 = no control) [%]	Test F disease control rating (Septoria nodorum; 200 ppm, 0 = no control) [%]	Test C disease control rating (Botrytis cinerea; 200 ppm, 0 = no control) [%]	Test I disease control rating ([1]; 200 ppm, 0 = no control) [%]	Test D disease control rating (Alternaria solani; 200 ppm, 0 = no control) [%]	Test J disease control rating ([2]; 200 ppm, 0 = no control) [%]	further results
COc1cc(F)c(-c2c(Cl)ncn2-c2ccc(Cl)cc2)c(Cl)c1 [compound 132]	92	0	94	74	98	97	–	–	–	–	–	–	–
Cc1nc(Cl)c(-c2c(F)cccc2Cl)n1-c1ccc(Cl)cc1 [compound 53]	95	0	89	100	100	99	–	–	–	–	–	–	–
Cn1nc(Br)c(-c2c(F)cccc2F)c1-c1ccc(Cl)cc1 [Compound 125, 3-bromo-5-(4-chlorophenyl)-4-(2,6-difluorophenyl)-1-methyl-1H-pyrazole]	–	–	–	–	–	–	–	–	–	–	–	–	pest or weed control at 200 ppm (Septoria tritici; Zymoseptoria tritici, 504 h, 200 ppm, 0 = no control relative to controls): 92%; pest or weed control at 200 ppm (Septoria nodorum; Parastagonospora nodorum, 264 h, 200 ppm, 0 = no control relative to controls): 0%; pest or weed control at 200 ppm (Botrytis cinerea; Botrytis cinerea, 120 h, 200 ppm, 0 = no control relative to controls): 98%; pest or weed control at 200 ppm ([1]; Puccinia recondita, 168 h, 200 ppm, 0 = no control relative to controls): 91%; pest or weed control at 200 ppm (Alternaria solani; Alternaria solani, 168 h, 200 ppm, 0 = no control relative to controls): 100%; pest or weed control at 200 ppm ([2]; Blumeria graminis, 168 h, 200 ppm, 0 = no control relative to controls): 100%
COc1ccc(-c2c(Cl)nc(Br)n2-c2ccc(Cl)cc2)c(F)c1 [compound 110]	95	100	94	97	99	96	–	–	–	–	–	–	–
Fc1ccc(-n2c(Br)nc(Cl)c2-c2c(F)ccc(F)c2F)cc1 [compound 134]	93	99	97	99	100	100	–	–	–	–	–	–	–
Fc1cc(F)c(-n2cnc(Cl)c2-c2ccc(Cl)cc2)c(F)c1 [compound 98]	–	–	–	–	–	–	–	–	–	–	–	–	Test G disease control rating (Septoria tritici; 40 ppm (marked *)): 27* %; Test F disease control rating (Septoria nodorum; 40 ppm (marked *)): 0* %; Test C disease control rating (Botrytis cinerea; 40 ppm (marked *)): 0* %; Test I disease control rating ([1]; 40 ppm (marked *)): 0* %; Test D disease control rating (Alternaria solani; 40 ppm (marked *)): 0* %; Test J disease control rating ([2]; 40 ppm (marked *)): 0* %
Cc1ccc(-n2cnc(Cl)c2-c2c(F)ccc(F)c2Cl)cc1 [compound 177]	–	–	–	–	–	–	79	0	88	99	0	99	–
Cc1nc(Cl)c(-c2c(F)cccc2C(F)(F)F)n1-c1ccc(Cl)cc1 [compound 94]	95	0	56	99	53	100	–	–	–	–	–	–	–
COc1cc(F)c(-c2c(Cl)nc(Cl)n2-c2cccc(F)c2)c(F)c1 [compound 257]	–	–	–	–	–	–	95	99	100	100	100	100	–
COc1cc(Cl)cc(F)c1-c1c(Cl)nc(Br)n1-c1ccc(Cl)cc1 [compound 140]	93	0	0	55	0	39	–	–	–	–	–	–	–
CSc1ccc(F)c(-c2c(Cl)ncn2-c2ccc(Cl)cc2)c1F [compound 215]	–	–	–	–	–	–	96	0	98	68	85	91	–
Cc1nc(Cl)n(-c2ccc(Cl)c(F)c2)c1-c1ccccc1F [compound 260]	–	–	–	–	–	–	92	0	100	94	95	99	–
Cc1nn(C)c(-c2c(F)cccc2Cl)c1-c1cccc(F)c1 [compound 62]	5	0	94	0	0	81	–	–	–	–	–	–	–
COc1cc(F)c(-c2c(Cl)nc(C)n2-c2ccc(F)cc2)c(F)c1 [compound 158]	–	–	–	–	–	–	97	96	99	100	100	100	–
CCc1ccc(-n2c(Br)nc(Cl)c2-c2c(F)ccc(OC)c2F)cc1 [compound 441]	97	0	97	97	99	99	–	–	–	–	–	–	–
Cc1ccc(-n2c(C)nc(Cl)c2-c2c(F)cccc2F)cc1F [compound 175]	–	–	–	–	–	–	98	82	97	100	97	99	–
Cc1nn(C)c(-c2c(F)cc(F)cc2F)c1-c1cccc(F)c1 [compound 70]	0	0	71	0	0	0	–	–	–	–	–	–	–
COc1cc(F)c(-c2c(Cl)nc(Cl)n2-c2ccc(C)cc2)c(F)c1 [compound 146]	100	100	99	100	100	100	–	–	–	–	–	–	–
Fc1ccccc1-n1c(Br)nc(Cl)c1-c1c(F)cccc1F [compound 58]	79	51	98	99	100	100	–	–	–	–	–	–	–
COc1cc(F)c(-c2c(Cl)nc(C)n2-c2ccc(Cl)cc2)c(Cl)c1 [compound 172]	–	–	–	–	–	–	98	100	99	99	99	99	–
Fc1cccc(F)c1-c1c(Cl)nc(Br)n1-c1cccc(Cl)c1 [compound 221]	–	–	–	–	–	–	95	0	99	97	99	98	–
Fc1ccc(-n2c(Br)nc(Cl)c2-c2c(F)ccc(F)c2Cl)cc1 [compound 195]	–	–	–	–	–	–	94	64	99	100	100	94	–
Cc1ccc(-n2c(Cl)nc(Cl)c2-c2c(F)cc(F)cc2F)cc1 [compound 154]	–	–	–	–	–	–	93	0	99	86	100	99	–
